This data set can be described thus: Human HepG2 cell viability assay in 384 well format. It counts as toxicity, cell-based. Further details: dose 125 nL, time 70.5 hour; concentration not given beside the values. As to conditions: HepG2 cells, read-out: Inhibition.

Structures are written as SMILES.

For `CC(=O)N1CCC2(CC1)CCN(C(=O)c1cccc(C(F)(F)F)c1)C2`, the cytotoxicity at 70.5 h was -13.6%.

Turning to `CC(=O)N1CCC2(CCN(C(=O)c3ccc(Cl)c(C(F)(F)F)c3)C2)C1` (configuration not stated), the cytotoxicity at 70.5 h is -11%. The value for `Cc1ncoc1C(=O)N1CCn2c(COc3cccnc3)cnc2C1C` (configuration not stated) was 17.8%; that for `O=C(NCC1Cn2nnc(-c3ccsc3)c2CO1)c1ccc[nH]1` (configuration not stated) was 1.74%. Next, `O=C(NCC1Cn2nnc(-c3ccncc3)c2CO1)c1ccc[nH]1` (configuration not stated): -5.04%. Next, `N#CCCNC(=O)c1ccn(-c2ccc3ccccn23)n1`: -7.72%; `Cc1nc(CN2CCO[C@@H]3CN(C(=O)CN(C)C)CC[C@@H]3C2)cs1`: -13.1%; `CN(Cc1ccco1)[C@@H]1CN(Cc2ccoc2)C[C@@H]2CCCO[C@@H]21`: -7.61%. On to `O=C(NCC1Cn2nnc(-c3ccccc3)c2CO1)c1ccc[nH]1` (configuration not stated), for which the cytotoxicity at 70.5 h was 1.41%. Next, `CC1c2ncc(COCC3CC3)n2CCN1C(=O)c1ccnnc1` (configuration not stated): -5.45%; `Cc1nnn2c1COC(CNC(=O)c1cccn1C)C2` (configuration not stated): -14.1%; `CC1c2ncc(COCC3CCOCC3)n2CCN1C(=O)c1ccco1` (configuration not stated): -10.5%. Next, `COCC1CN(C(=O)Cc2ccccn2)Cc2cn(CC3CC3)nc21` (configuration not stated): -14.6%. In the case of `CCn1cc2c(n1)C(COC)CN(C(=O)CCOc1ccccc1)C2` (configuration not stated), the cytotoxicity at 70.5 h is -12.3%. `CN(C)S(=O)(=O)N1C[C@H]2C[C@H](C(=O)NCc3ccccc3)[C@@H](C1)O2`: the cytotoxicity at 70.5 h was -12.2%. As for `N#Cc1cccc(N2CC3(CCN(C(=O)c4ccnnc4)C3)CC2=O)c1` (configuration not stated), the cytotoxicity at 70.5 h was -10.5%. Consider `CN(C)CCO[C@H]1CN(C(=O)c2cscn2)[C@@H]2COC[C@H]12`, for which the cytotoxicity at 70.5 h was -14.3%. Regarding `O=C(c1ccnnc1)N1C[C@H](OCC2CC2)[C@H]2COC[C@H]21`, the cytotoxicity at 70.5 h is -13.5%. With `CN(C)CCO[C@H]1CN(C(=O)c2ccc[nH]2)[C@@H]2COC[C@H]12`, the cytotoxicity at 70.5 h was -11.1%. The value for `CN(C)C(=O)N1CCC2(CC(=O)N(c3cccc(C#N)c3)C2)C1` (configuration not stated) was -5.09%. Next, `CCO[C@H]1CN(C(=O)c2ccnnc2)[C@@H]2COC[C@H]12`: -10.7%; `O=C(c1ncccn1)N1C[C@@H]2CN(Cc3cccnc3)CCO[C@@H]2C1`: -5.35%. Next, `CC(C)NC(=O)[C@H]1C[C@@H]2CN(C(=O)NCc3ccccc3)C[C@H]1O2`: -7.91%; `CCOCC1CC2(CCN(C(=O)c3cscn3)CC2)CO1` (configuration not stated): -9.28%. Turning to `CCn1cc2c(n1)C(COC)CN(C(=O)c1ccccn1)C2` (configuration not stated), the cytotoxicity at 70.5 h is -9.71%. The value for `O=C(c1ccnnc1)N1CCc2onc(Cn3cccn3)c2C1` was -3.08%; that for `O=C(c1ccco1)N1CCc2onc(Cn3cccn3)c2C1` was -7.44%. With `CN(C)CCOCC1CN(CCN(C)C)Cc2ccnn2C1` (configuration not stated), the cytotoxicity at 70.5 h was -10.7%. Next, `COc1ccc(C(=O)N2C[C@@H](O)[C@H](NCc3ncccc3C)C2)cc1`: -8.03%. Next, `CNCCCNC1CCN(c2ccc(-n3ccnc3)cc2)CC1`: -7.26%; `CC(C)Cc1cc(C(=O)NCC2CCCN(Cc3ccco3)C2)on1` (configuration not stated): -10.7%; `Cc1nn(C)c2nc(-c3ccccn3)nc(NCCC3CCCN3C)c12` (configuration not stated): 1.37%. The value for `Cc1ncsc1CN1CC2(CCCC2)CC1=O` was 0.928%.

In the case of `COc1ccc2nc(O)c(CN(C)Cc3ncc[nH]3)cc2c1`, the cytotoxicity at 70.5 h came to 1.48%. The value for `COCCc1noc(C2CCCN(c3nc(N)nc4c3CCCC4)C2)n1` (configuration not stated) was 3.87%; that for `CNc1ncc(CN(C)C(=O)CCc2[nH]nc3c2CCCC3)cn1` was -11.5%; that for `Cc1cccnc1CC(C)Nc1ncc(C)c(N(C)C)n1` (configuration not stated) was 2.64%. The value for `CCCc1nccn1-c1ccc(C(C)O)cc1` (configuration not stated) was -5.9%.

As to `O=C(NCC1CCCCO1)c1cc(Cn2cnc3ccccc32)[nH]n1` (configuration not stated), the cytotoxicity at 70.5 h is -6.38%.

As to `O=C(NCCSc1ccccc1)[C@H]1CNC[C@@H](C(=O)N2CCOCC2)C1`, the cytotoxicity at 70.5 h was -7.93%. `Nc1ncccc1CN1C[C@H]2OC(=O)N(Cc3ccccn3)[C@H]2C1`: the cytotoxicity at 70.5 h was -3.5%. Consider `Clc1ccccc1C1(c2ccnc(C3CC3)n2)CCNCC1`, for which the cytotoxicity at 70.5 h came to 48.5%.

Turning to `COc1ccc(C(=O)C2CCCN(Cc3cnn(C)c3C)C2)c(OC)c1` (configuration not stated), the cytotoxicity at 70.5 h is -20.2%. The value for `O=C(O)C1(n2ccnc2)CCN(Cc2ccc3occc3c2)CC1` was -5.96%; that for `Cc1cc(CNC(=O)c2cc(COc3cncc(Cl)c3)on2)n[nH]1` was 16%; that for `COc1cc(C#N)ccc1OC12CCCN(CC1)C2` (configuration not stated) was -8.26%. As for `CC(C)=CCN1C[C@H]2CC[C@@H]1CN(C(=O)Cn1c(C)cc(C)nc1=O)C2`, the cytotoxicity at 70.5 h is -4.66%.

Take `COc1ccnc(N2CCC(=O)N(CC3CC3)C(C(C)C)C2)n1` (configuration not stated): the cytotoxicity at 70.5 h was found to be 32.2%. The value for `COCCNc1ncnc2c1CCN(C(=O)CC1CCC(=O)N1)CC2` (configuration not stated) was -12.7%; that for `NC(=O)N1CCCC(C(=O)N2CCN(c3nsc4ccccc34)CC2)C1` (configuration not stated) was -3.95%; that for `Cc1cccc(C)c1Oc1ncccc1CNC(=O)C1COC(=O)N1` (configuration not stated) was -21.8%.

Take `CN(C)Cc1nnc(C2CCN(c3ncccc3Cl)CC2)n1C1CC1`: the cytotoxicity at 70.5 h amounted to 8.65%.

On to `O=C(Nc1ccc(-c2ccco2)cc1)C1CCCN(Cc2ccon2)C1` (configuration not stated), for which the cytotoxicity at 70.5 h was determined as 1.57%. The value for `CC(CCN1CCCn2nc(CNS(C)(=O)=O)cc2C1)c1ccccc1` (configuration not stated) was 17.7%; that for `COCCn1c(CN2CCCO2)cnc1S(=O)(=O)CC1CCCCC1` was -2.9%.

For the compound `CN(C)C(C(=O)N1CC(c2ccccn2)C1)c1cccc(F)c1` (configuration not stated), the cytotoxicity at 70.5 h is -2.09%. The value for `CC(C)c1nc(CNc2nccc(CCC(F)(F)F)n2)cs1` was -8.19%; that for `Cc1ccc(C)c2c(=O)cc(CN3CC[C@@H](N)[C@H](O)C3)[nH]c12` was -3.81%; that for `CC(C)n1ccnc1C1CCN(Cc2ccc(C(F)(F)F)c(F)c2)CC1` was 23.4%. The value for `CN1C(=O)CC(C(=O)O)C12CCN(c1ccc3c(n1)CCCC3)CC2` (configuration not stated) was -5.19%. Next, `O=C(O)[C@H]1C[C@@H](C(=O)NCc2ccncc2)CN(Cc2ccccc2)C1`: -1.34%; `O=C(c1ccc(C2CCCN2C(=O)c2ccc[nH]2)s1)N1CCSCC1` (configuration not stated): -19.6%. On to `c1ccc(C(CNc2ncccn2)N2CCOCC2)nc1` (configuration not stated), for which the cytotoxicity at 70.5 h is -1.54%. The value for `Cc1n[nH]c(C)c1-c1cc(-c2cc[nH]c2)nc(N)c1C#N` was -12.3%. Next, `Cc1cncc(NC(=O)c2ccc(CN3CCCC(C(N)=O)C3)cc2)c1` (configuration not stated): -0.673%; `Cc1ccc(C(=O)N2CCC3(CC2)c2ccccc2[C@@H](N)[C@@H]3O)c(=O)[nH]1`: -7.97%; `Cc1cc(C)nc(N2CCC(C(=O)O)(n3ccc(C(C)(C)C)n3)CC2)n1`: -10.1%. For `COCCN1CCN(Cc2ccc(Cl)cc2)[C@H]2CS(=O)(=O)C[C@H]21`, the cytotoxicity at 70.5 h is 0.00609%.

In the case of `O=C(NC1CC(=O)N(C2Cc3ccccc3C2)C1)c1ccsc1` (configuration not stated), the cytotoxicity at 70.5 h is -3.74%. Next, `NC(=O)NCC(=O)N1CCCC(OCc2cccnc2)C1` (configuration not stated): 47.2%. Next, `O=C(NCc1cccc(Cl)c1)C1=NOC2(CCNC2)C1` (configuration not stated): -6.34%. As for `CN(C)S(=O)(=O)N1C[C@@H](OCc2cccnc2)[C@H]2OCCC[C@H]21`, the cytotoxicity at 70.5 h amounted to 12.6%. For the compound `CCCS(=O)(=O)N1C[C@@H](OCc2ccncc2)[C@H]2OCCC[C@H]21`, the cytotoxicity at 70.5 h is -7.43%. The value for `COCCN1CCc2c(cnc(-c3ccccc3)c2C(=O)O)C1` was -9.19%; that for `Cn1nccc1C(=O)N1CCC2(CC1)COC(COc1ccccn1)C2` (configuration not stated) was -11.2%. On to `CN(C)CCNC(=O)[C@H]1C[C@@H]2CN(C(=O)NCc3ccccc3)C[C@H]1O2`, for which the cytotoxicity at 70.5 h is -14.9%.

With `CC(C)N1CCc2nnc(COc3cncnc3)n2CC1`, the cytotoxicity at 70.5 h is -9.44%. Next, `CNC(=O)N1C[C@H]2C[C@H](C(=O)NCc3cccnc3)[C@@H](C1)O2`: -4.91%; `O=C(c1ccco1)N1C[C@H]2CCCN(CC3CC3)[C@H]2C1`: -16.9%.

For `Cc1cccc(CN2CCC[C@@H]3CN(C(=O)c4ccco4)C[C@@H]32)n1`, the cytotoxicity at 70.5 h was -7.63%. Next, `Cn1cccc1C(=O)N1CCC2(CCCN2Cc2ccccc2)CC1`: -9.97%. For `O=C(c1ccco1)N1C[C@H]2CCCN(Cc3ccoc3)[C@H]2C1`, the cytotoxicity at 70.5 h is -9.66%. With `CN(Cc1ccco1)[C@@H]1CN(Cc2cccs2)C[C@@H]2CCCO[C@@H]21`, the cytotoxicity at 70.5 h is -6.25%. The value for `CCOCC1CN(c2ccncn2)Cc2cnn(CC3CC3)c21` (configuration not stated) was -7.56%; that for `c1ccc(OCc2nnc3n2CCN(CC2CC2)C3)nc1` was -13.3%; that for `Cc1nc(CN2CCO[C@@H]3CN(Cc4nccs4)C[C@@H]3C2)cs1` was -1.91%. The value for `Cc1ccc(CN2C[C@@H]3CCCO[C@@H]3[C@H](N(C)Cc3ccco3)C2)o1` was -9.18%; that for `O=C(O)c1c(-c2cccnc2)ncc2c1CCN(Cc1cccnc1)C2` was -5.73%.

For `Cc1cnc(C(=O)N2C[C@H]3CN(Cc4cccnc4)C[C@H]3C2)cn1`, the cytotoxicity at 70.5 h was found to be 6.07%. Next, `c1cncc(CN2CCc3c(nnn3CC3CC3)C2COCC2CC2)c1` (configuration not stated): -14.9%; `O=C(NC1CC1)[C@H]1C[C@H]2OCC[C@H]2N(Cc2cccnc2)C1`: -7.68%; `CN(Cc1ccco1)[C@@H]1CN(Cc2ccncc2)C[C@@H]2CCCO[C@@H]21`: -13.9%.

The values are drawn from ChEMBL document CHEMBL3507680, “University of Dundee, Gates Library screen for HepG2 cell viability”.
